Experiment [1] deals with A2780 (ovarian) cells. The experiment can be described thus: Anti-proliferative activity, Cell-Titre luminescent viability assay. Type of experiment: cell-based. The settings on record: Homo sapiens, 72 h exposure, Cell-Titre luminescent reagent. The procedure: (§1) The ability of compounds of the disclosure to inhibit the proliferation of cancer cells representative of non-small cell lung cancer and ovarian cancer (Table 1), and pancreatic cancer, colorectal cancer and prostate cancer (Table 2) was assessed. Briefly, a predetermined number of cells as calculated from cell growth assays for each of the cell lines employed were seeded into their respective culture medium (using ATCC culture parameters—http://www.atcc.org) and cultured for 24 h at 37° C. and 5% CO2 in 96-well culture plates. Once attached, each cell line was then exposed to various concentrations of each respective analogue (100, 30, 10, 3, 1 and 0.3 µM or 30, 10, 3, 1, 0.3 and 0.1 μM), cultured for a further 72 h and exposed to Cell-Titre luminescent reagent (100 μL/well) for a further 30 min. Luminescence was captured using an EnVision multilabel reader and the data for each analogue concentration compared against no treatment control. Cell viability was normalised to control (vehicle alone) and dose response curves, and half maximal effective concentration (EC50) values were determined using Graph Pad Prism 6 (nonlinear regression sigmoidal dose-response variable slope).

Experiment [2] concerns A549 (NSCLC) cells. Described as above. The format is cell-based. The settings on record: Homo sapiens, 72 h exposure, Cell-Titre luminescent reagent. The protocol:
as §1

pIC50: −log10 of the molar value. Some results are limits rather than exact numbers.

These results are taken from patent publication US12528792B2, “Sulfonamide compounds and the use thereof in the treatment of cancer” (TROBIO THERAPEUTICS PTY LTD, priority 2019, dated 2026).

The pIC50 is the negative decadic logarithm of the IC50, by convention in mol/L. High values mean a low IC50, low ones a high IC50.

Regarding `CCc1ccccc1NC(=O)C1CCN(S(=O)(=O)c2ccc3[nH]ccc3c2)CC1` [Compound 61, 1-((1H-indol-5-yl)sulfonyl)-N-(2-ethylphenyl)piperidine-4-carboxamide], the negative logarithm of the IC50 (pIC50) in experiment [1] and in experiment [2] was under 4.52 in each case.

Regarding `O=C(Nc1ccc(F)cn1)c1ccn(S(=O)(=O)c2ccc3[nH]ccc3c2)c1` [Compound 72], the negative-log IC50 (pIC50) in experiment [1] is under 4.52; in experiment [2], 5.46.

As for `CCC(C)c1ccc(NC(=O)c2ccn(S(=O)(=O)c3ccc4[nH]ccc4c3)n2)cc1` (stereo not drawn) [Compound 105, 1-((1H-indol-5-yl)sulfonyl)-N-(4-(sec-butyl)phenyl)-1H-pyrazole-3-carboxamide], the figures for the negative logarithm of the IC50 (pIC50) in experiment [1] and in experiment [2] were 5.12 and 5.07, respectively.

Turning to `O=C(Nc1ccc(Cl)cn1)c1ccn(S(=O)(=O)c2ccc3[nH]ccc3c2)c1` [Compound 73], the figures for the pIC50 in experiment [1] and in experiment [2] were 4.95 and 5.58, respectively.

Turning to `O=C(Nc1ccc(Cl)cn1)c1ccn(S(=O)(=O)c2ccc3[nH]ccc3c2)n1` [Compound 85], the results for the pIC50 in experiment [1] and in experiment [2] were 4.67 and 4.95, respectively.

As to `O=C(Nc1ccc(Cl)nc1)c1ccn(S(=O)(=O)c2ccc3[nH]ccc3c2)c1` [Compound 75, 1-((1H-indol-5-yl)sulfonyl)-N-(6-chloropyridin-3-yl)-1H-pyrrole-3-carboxamide], the values for the negative-log IC50 (pIC50) in experiment [1] and in experiment [2] were 4.57 and 4.73, respectively.

With `O=C(Nc1ccc(Cl)nc1)c1ccn(S(=O)(=O)c2ccc3[nH]ccc3c2)n1` [Compound 87, 1-((1H-indol-5-yl)sulfonyl)-N-(6-chloropyridin-3-yl)-1H-pyrazole-3-carboxamide], the negative logarithm of the IC50 (pIC50) is at most 4.52 in experiment [1] and under 4.52 in experiment [2].

For `O=C(Nc1ccc(F)c(F)c1)c1ccn(S(=O)(=O)c2ccc3[nH]ccc3c2)n1` [Compound 80, 1-((1H-indol-5-yl)sulfonyl)-N-(3,4-difluorophenyl)-1H-pyrazole-3-carboxamide], the results for the negative-log IC50 (pIC50) in experiment [1] and in experiment [2] were 4.88 and 5.32, respectively.

Turning to `CCC(C)c1ccc(NC(=O)N2CCN(S(=O)(=O)c3cc(C(N)=O)n(C)c3)CC2)cc1` (stereo not drawn) [Compound 9, N-(4-(sec-butyl)phenyl)-4-((5-carbamoyl-1-methyl-1H-pyrrol-3-yl)sulfonyl)piperazine-1-carboxamide], the pIC50 in experiment [1] and in experiment [2] was under 4.00 each time.

`O=C(Nc1cc(F)cc(F)c1)c1ccn(S(=O)(=O)c2ccc3[nH]ccc3c2)c1` [Compound 54, 1-((1H-indol-5-yl)sulfonyl)-N-(3,5-difluorophenyl)-1H-pyrrole-3-carboxamide]: the pIC50 was 5.09 in experiment [1] and 4.88 in experiment [2].

For `CC(C)Cc1ccc(NC(=O)c2ccn(S(=O)(=O)c3ccc4[nH]ccc4c3)n2)cc1` [Compound 111, 1-((1H-indol-5-yl)sulfonyl)-N-(4-isobutylphenyl)-1H-pyrazole-3-carboxamide], the negative-log IC50 (pIC50) is 4.94 in experiment [1] and 5.16 in experiment [2].

Turning to `Cc1ccc(NC(=O)N2CCN(S(=O)(=O)c3ccc4c(c3)CCN4)CC2)cc1O` [Compound 13, N-(3-hydroxy-4-methylphenyl)-4-(indolin-5-ylsulfonyl)piperazine-1-carboxamide], the negative-log IC50 (pIC50) in experiment [1] and in experiment [2] was under 4.00 throughout.

For the compound `COc1ccc(NC(=O)c2ccn(S(=O)(=O)c3ccc4[nH]ccc4c3)n2)cc1` [Compound 115, 1-((1H-indol-5-yl)sulfonyl)-N-(4-methoxyphenyl)-1H-pyrazole-3-carboxamide], the pIC50 in experiment [1] and in experiment [2] was under 4.52 in each case.

With `CC(C)(C)c1ccc(S(=O)(=O)n2ccc(C(=O)NCCc3ccc(C(F)(F)F)cc3)c2)cc1` [Compound 90, 1-((4-(tert-butyl)phenyl)sulfonyl)-N-(4-(trifluoromethyl)phenethyl)-1H-pyrrole-3-carboxamide], the negative logarithm of the IC50 (pIC50) in experiment [1] and in experiment [2] was under 4.52 in each case.

For `Cc1cc(F)cc(NC(=O)c2ccn(S(=O)(=O)c3ccc4[nH]ccc4c3)c2)c1` [Compound 56, 1-((1H-indol-5-yl)sulfonyl)-N-(3-fluoro-5-methylphenyl)-1H-pyrrole-3-carboxamide], the pIC50 is 4.71 in experiment [1] and 4.75 in experiment [2].
